Values of other authors as cited in patent publication US20120028902A1, “PEPTIDE AVAILABILITY” (priority 2008, published 2012).

- Further increase of plasma IPP AUC when consumed with the meal (yoghurt drink consumed with breakfast, versus fasted state): 30%
- Increase of plasma IPP level (area under the concentration vs. time curve) compared to a control drink (yoghurt drink drunk in overnight fasted state 30 min prior to breakfast): more than two-fold
Structure (SMILES): CC[C@H](C)[C@H](N)C(=O)N1CCC[C@H]1C(=O)N1CCC[C@H]1C(=O)O [IPP, isoleucine-proline-proline]
